Among the data in ChEMBL document CHEMBL3507680, “University of Dundee, Gates Library screen for HepG2 cell viability” are cytotoxicity values, retold here.

The data set in a line: Human HepG2 cell viability assay in 384 well format. The following applies: HepG2 cells, read-out: Inhibition. Format: toxicity, cell-based. More on the design: dose 125 nL, time 70.5 hour; concentration not given beside the values.

As to `CC(C)Cc1cc(NC(=O)c2ccc3[nH]nnc3c2)n(C)n1`, the cytotoxicity at 70.5 h came out at 14.7%.

With `Cc1cc(N(C)C)nc(N2CC(n3cccn3)C2)n1`, the cytotoxicity at 70.5 h turned out to be 5.13%.

With `O=C(NCC(O)COc1ccc(F)cc1)C1(c2ccc(F)cc2)CC1` (centres undefined), the cytotoxicity at 70.5 h was -8.65%.

On to `Cn1nc(CC(C)(C)C)cc1NC(=O)c1ccc(CNC(N)=O)cc1`, for which the cytotoxicity at 70.5 h was -7.81%.

On to `CC(=O)Nc1cc(C(=O)Nc2cc(CC(C)(C)C)nn2C)ccc1F`, for which the cytotoxicity at 70.5 h was found to be 14.4%.

Regarding `COc1cc2nc(NCc3ccc(C)nc3)nc(N)c2cc1OC`, the cytotoxicity at 70.5 h was -5.25%.

`CCCOc1cccc(NC(=O)NC2CCc3nc(C)nn3C2)c1` (centres undefined): the cytotoxicity at 70.5 h was -5.39%.

As for `CCc1cccc(NC(=O)NC2CCc3nc(C)nn3C2)c1` (centres undefined), the cytotoxicity at 70.5 h came out at 13.8%.

Regarding `O=C(NCC(F)(F)F)C1CCCN(Cc2ccno2)C1` (centres undefined), the cytotoxicity at 70.5 h was -3.85%.

For the molecule `OCCOc1ccc(NCc2cccc3cccnc23)cn1`, the cytotoxicity at 70.5 h was 17.1%.

As for `Cc1ncccc1CNc1ccc(OCCO)nc1`, the cytotoxicity at 70.5 h was -6.19%.

Regarding `CC(C)NC(=O)NCc1ccnc(N(C)C)n1`, the cytotoxicity at 70.5 h was -6.75%.

As to `CN(C)c1nccc(CNC(=O)NC(C)(C)C)n1`, the cytotoxicity at 70.5 h is -0.141%.

For `CN(C)c1nccc(CNC(=O)NCc2ccco2)n1`, the cytotoxicity at 70.5 h was -8.38%.

For the molecule `CCc1cnc(CN(C)C(=O)NC2CCN(c3ccccc3)C2)s1` (centres undefined), the cytotoxicity at 70.5 h was -0.551%.

Consider `CCc1cnc(CN(C)C(=O)NC2CCN(CC3CC3)C2)s1` (centres undefined), for which the cytotoxicity at 70.5 h stood at 25.5%.

`c1cc(-c2noc(C3CCC3)n2)cc(N2CCCCC2)n1`: the cytotoxicity at 70.5 h was found to be 16.5%.

Consider `COC(=O)C1CN(Cc2ccccc2C(C)(C)C#N)CCO1` (centres undefined), for which the cytotoxicity at 70.5 h was -5.04%.

With `OCCOc1ccc(NCc2cccc3cn[nH]c23)cn1`, the cytotoxicity at 70.5 h was 0.12%.

With `Cc1cnc(CN2CCN(C(C)c3nc(C4CC4)no3)CC2)cn1` (centres undefined), the cytotoxicity at 70.5 h was -6.13%.

`CC1CCCCN1C(=O)c1ccc2c(c1)OCCCO2` (centres undefined): the cytotoxicity at 70.5 h amounted to 10.5%.

Turning to `O=C(NCc1ccccc1CN1CCCC1=O)Nc1nncs1`, the cytotoxicity at 70.5 h is -7.24%.

As for `O=S(=O)(CCCc1ccccc1)Cc1nnnn1C1CC1`, the cytotoxicity at 70.5 h is -8.42%.

Regarding `O=C(NCc1ccccc1CN1CCCC1=O)Nc1nccs1`, the cytotoxicity at 70.5 h is -9.69%.

As for `CC1CCCCN1Cc1nc(Cc2ccccc2)no1` (centres undefined), the cytotoxicity at 70.5 h is -10.4%.

`CC(C)(C(=O)NCc1ccc(C#N)cc1)n1cc(Br)cn1`: the cytotoxicity at 70.5 h is -2.27%.

`O=C(Cn1ccc(=O)c2ccccc21)Nc1cnccc1O`: the cytotoxicity at 70.5 h amounted to 8.04%.

For the molecule `CN(C1CCN(c2ccccn2)CC1)S(=O)(=O)c1ccc(F)cc1`, the cytotoxicity at 70.5 h was -6.89%.

In the case of `O=C(c1ccc2c(c1)CCC2)N1CCCCC1C1OCCO1` (centres undefined), the cytotoxicity at 70.5 h is -7.93%.

For the molecule `N#Cc1ccc(SCCOCCO)c(F)c1`, the cytotoxicity at 70.5 h is -8.55%.

Turning to `CN(C)c1ncccc1C(=O)N1CCN(C2=NCC(C)(C)S2)CC1`, the cytotoxicity at 70.5 h was 6.73%.

For `O=C(CC1OCCc2ccsc21)NCC1CC1` (centres undefined), the cytotoxicity at 70.5 h was -1.8%.

Take `NC(=O)CCNC(=O)Cc1cccc(I)c1`: the cytotoxicity at 70.5 h amounted to 16.7%.

For the molecule `COCCn1ccc(NCc2scnc2C)n1`, the cytotoxicity at 70.5 h is -8.55%.

Take `N#Cc1ccc(SCCOCCO)c(Cl)c1`: the cytotoxicity at 70.5 h is -5.04%.

`c1ccc(Cc2noc(CN3CCCC3C3CCCCC3)n2)cc1` (centres undefined): the cytotoxicity at 70.5 h is 16.5%.

`CN(C)C(C(=O)NCC1(O)CCCCC1)c1c(F)cccc1F` (centres undefined): the cytotoxicity at 70.5 h is -13%.

As for `CCOc1ccnc(N2CCN(CCOC)CC2)n1`, the cytotoxicity at 70.5 h was -5.63%.

In the case of `Cc1cnc(CN2CCN(C(C)c3nc(C)no3)CC2)cn1` (centres undefined), the cytotoxicity at 70.5 h is 17.2%.

`CC(C)N(Cc1ccccc1)Cc1nnsc1Cl`: the cytotoxicity at 70.5 h is -8.66%.

In the case of `CCNC(=O)CN1CCOC(c2ccccc2C(F)(F)F)C1` (centres undefined), the cytotoxicity at 70.5 h came to 0.292%.

`CCOCCOCc1cccc(CNc2cncc(-n3cccn3)n2)c1`: the cytotoxicity at 70.5 h is -2.12%.

As for `COc1ncccc1CNCc1c(C(C)C)nn(C)c1Cl`, the cytotoxicity at 70.5 h is -5.22%.

On to `COc1ccccc1C(C)CNC(=O)c1c(C)nn(C)c1OC` (centres undefined), for which the cytotoxicity at 70.5 h was -3.39%.

As to `COc1ncccc1CNCc1c(C(C)C)nn(C)c1N(C)C`, the cytotoxicity at 70.5 h was -1.75%.

On to `COc1ccc(NC(=O)N(C)Cc2ccc(Br)o2)cn1`, for which the cytotoxicity at 70.5 h is -6.19%.

`CCN(CC)C(=O)c1ccc(COc2ccccc2C#N)o1`: the cytotoxicity at 70.5 h was -9.63%.

Consider `Cn1ccnc1COc1ccc(NC(=O)C2CCCO2)cc1` (centres undefined), for which the cytotoxicity at 70.5 h was 3.57%.

As to `Cc1cccc(-c2ccc(C(=O)NCCN3CCOCC3)c(=O)[nH]2)c1`, the cytotoxicity at 70.5 h was -6.01%.

For `N#CCCN(CCC#N)C(=O)c1ccc(COc2ccccc2C#N)o1`, the cytotoxicity at 70.5 h stood at 6.22%.

As for `O=C(NCCCN1CCOCC1)c1ccc(-c2ccccc2)[nH]c1=O`, the cytotoxicity at 70.5 h was -5.86%.

With `CCSCCC(=O)NCCn1nc2ccccn2c1=O`, the cytotoxicity at 70.5 h is -7.12%.

On to `COc1ccccc1N1CCC(CNC(=O)CN2CSCC2=O)C1` (centres undefined), for which the cytotoxicity at 70.5 h was -7.92%.

On to `CN(Cc1cccs1)C(=O)c1ccc(N2CCOCC2)c(F)c1`, for which the cytotoxicity at 70.5 h was 12.4%.

Turning to `O=C(CN1CCCCCC1=O)NCC1CCN(c2ccccc2)C1` (centres undefined), the cytotoxicity at 70.5 h was -5.56%.

In the case of `COc1cc(NC(=O)NCCO)ccc1N1CCOC1=O`, the cytotoxicity at 70.5 h is -6.58%.

For `COc1cc(NC(=O)NC(C2CC2)C2CC2)ccc1N1CCOC1=O`, the cytotoxicity at 70.5 h was -18%.

For the molecule `COc1ncccc1CNCc1c(C(C)C)nn(C)c1OC`, the cytotoxicity at 70.5 h was -4.91%.

Turning to `CN(Cc1ccc2c(c1)OCO2)C(=O)c1ccn(C)c(=O)c1`, the cytotoxicity at 70.5 h was -10.8%.

On to `COc1c(CNCc2ccc(CN3CCOCC3)cc2)c(C)nn1C`, for which the cytotoxicity at 70.5 h amounted to 5.61%.

Turning to `COc1c(CNCc2cccnc2OC(C)C)c(C(C)C)nn1C`, the cytotoxicity at 70.5 h is -8.38%.

Turning to `Cc1ccsc1CN(C)C(=O)c1ccc(N2CCOCC2)c(F)c1`, the cytotoxicity at 70.5 h was -7.5%.

For the molecule `COC(=O)NCCC(=O)NCC1(c2cccc(Cl)c2)CC1`, the cytotoxicity at 70.5 h is -6.53%.

Take `O=C(CCc1ccncc1)Nc1ccc(OCC2CCOCC2)cc1`: the cytotoxicity at 70.5 h was -13.6%.

As for `COC(=O)NCCCC(=O)NC1(c2cccc(Cl)c2)CC1`, the cytotoxicity at 70.5 h was -6.46%.

For `CN(Cc1cc(=O)c(O)co1)C1CCN(c2ccc(F)cc2)CC1`, the cytotoxicity at 70.5 h was 22.1%.

For the molecule `CNS(=O)(=O)CC1CCCN1C(=O)c1ccc2cc[nH]c2c1` (centres undefined), the cytotoxicity at 70.5 h is -7.71%.

With `COC(=O)Cc1cccc(NC(=O)Cc2cc(C)[nH]n2)c1`, the cytotoxicity at 70.5 h was 21.3%.

As for `Cc1cc(=O)n(C)cc1NC(=O)CC1CCC1`, the cytotoxicity at 70.5 h was -2.84%.

On to `O=C(CCc1ccncc1)Nc1ccc(OCC2CC2)cc1`, for which the cytotoxicity at 70.5 h was -11.9%.

For the molecule `CCc1nc(C(=O)N2CCN(Cc3ccc(Cl)cc3)CC2)c[nH]1`, the cytotoxicity at 70.5 h is -2.01%.

As for `CC(C)C(=O)N1CCC(NC2CCSCC2)C1` (centres undefined), the cytotoxicity at 70.5 h is -4.83%.

As to `CCc1nc(C(=O)N2CCN(C(=O)CCc3ccccc3)CC2)c[nH]1`, the cytotoxicity at 70.5 h is -6.61%.

`CCc1nnc2n1CC(CNCC1CCCC1)CC2` (centres undefined): the cytotoxicity at 70.5 h was -1.75%.

`Cc1cc(C)c(CNC(=O)C2COc3ccccc3C2)c(=O)[nH]1` (centres undefined): the cytotoxicity at 70.5 h is 0.458%.

`Cc1n[nH]c(C)c1NC(=O)Nc1cccnc1N1CCCC1`: the cytotoxicity at 70.5 h was 12.8%.

Consider `Cc1cc(C)c(CNC(=O)NC2COc3ccccc3C2)c(=O)[nH]1` (centres undefined), for which the cytotoxicity at 70.5 h was -8.39%.

`Cc1cc(C)c(CNC(=O)NCC2Cc3ccccc32)c(=O)[nH]1` (centres undefined): the cytotoxicity at 70.5 h was -12%.

With `Cc1cc(C)c(CNC(=O)NCC2COc3ccccc3C2)c(=O)[nH]1` (centres undefined), the cytotoxicity at 70.5 h was -10.2%.

For `O=S1(=O)N=C(CSCc2ccccc2)Nc2ccccc21`, the cytotoxicity at 70.5 h is -3.64%.

As for `Cn1nc2c(cc1=O)CN(c1ncnc3ccsc13)CC2`, the cytotoxicity at 70.5 h came out at 3.58%.

Regarding `Cc1nnc(C(NS(=O)(=O)c2cc(C)c(F)cc2F)C(C)C)[nH]1` (centres undefined), the cytotoxicity at 70.5 h was -6.79%.

Take `Cc1ccc(NC(=O)CN2CCC(OCC3CCCO3)CC2)c(C)c1` (centres undefined): the cytotoxicity at 70.5 h was determined as 5.15%.

Consider `CNC(=O)CN1CCC(OCC2CCCO2)CC1` (centres undefined), for which the cytotoxicity at 70.5 h was -8.23%.

As for `CS(=O)(=O)Cc1cc(F)ccc1NCc1nnsc1Cl`, the cytotoxicity at 70.5 h amounted to 12.3%.

`COc1cc(CNc2cc(-c3nncn3C)ccn2)cc(OC)c1OC`: the cytotoxicity at 70.5 h is -3.3%.

On to `CCN1CCC(NC(=O)NCC(O)c2ccc(Cl)c(F)c2)CC1` (centres undefined), for which the cytotoxicity at 70.5 h amounted to 6.86%.

On to `O=C(NCC(O)c1ccc(Cl)c(F)c1)NC1CC=CC1` (centres undefined), for which the cytotoxicity at 70.5 h is -3.83%.

Consider `CC(=O)N1CCN(c2ccnc3c(F)cc(Br)cc23)CC1`, for which the cytotoxicity at 70.5 h is -1.55%.

In the case of `COc1cccc(CN(C)Cn2nc(C(C)(C)C)ccc2=O)c1`, the cytotoxicity at 70.5 h stood at 2.69%.

For the molecule `CN(Cc1cccc(C#N)c1)Cn1nc(C(C)(C)C)ccc1=O`, the cytotoxicity at 70.5 h is -0.146%.

In the case of `CSCC(=O)N(C)Cc1ccc(N(C)C)cc1`, the cytotoxicity at 70.5 h is -6.63%.

In the case of `CC(C)(C)c1nnc(CN(Cc2cccs2)CC2CCCO2)o1` (centres undefined), the cytotoxicity at 70.5 h is -1.38%.

For `CCOCC1CCN(C(=O)Nc2ccc3c(c2)CCCO3)C1` (centres undefined), the cytotoxicity at 70.5 h turned out to be 17.3%.

Turning to `CCCc1nnc(NC(=O)N2CCCC2c2ccncc2)s1` (centres undefined), the cytotoxicity at 70.5 h was determined as 18.5%.

As for `O=C(NCCNC(=O)c1ccc(Br)cc1)c1ccc(O)cc1`, the cytotoxicity at 70.5 h is -11%.

On to `N#Cc1cccnc1NCc1ccc(S(=O)(=O)NC2CC2)cc1`, for which the cytotoxicity at 70.5 h was -17.8%.

`N#Cc1cccnc1NCc1ccc(S(=O)(=O)NCC2CCCO2)cc1` (centres undefined): the cytotoxicity at 70.5 h was 14%.

With `CC(C)N(Cc1ccc(C#N)cc1)Cc1nnsc1Cl`, the cytotoxicity at 70.5 h was -15.5%.

As for `COc1cc2c(cc1OC)S(=O)(=O)N(Cc1cccc(C)c1)C2=O`, the cytotoxicity at 70.5 h was -11.2%.

In the case of `CC(O)CN(c1ccccc1)S(=O)(=O)c1cc(C(=O)O)cc2c1CCC2` (centres undefined), the cytotoxicity at 70.5 h is -7.68%.

For `CC(C)c1nn(C)c(Cl)c1CNCc1cccnc1N(C)C`, the cytotoxicity at 70.5 h was -9.54%.

`CC(C)c1noc(CN2CCC(C3CCCCCN3S(C)(=O)=O)CC2)n1` (centres undefined): the cytotoxicity at 70.5 h is 11%.

With `CC(=O)N1CCCCCC1C1CCN(Cc2nc(C(C)C)no2)CC1` (centres undefined), the cytotoxicity at 70.5 h was 0.62%.
